Publication PMC3314626, “Crystal Structures of the Tetratricopeptide Repeat Domains of Kinesin Light Chains: Insight into Cargo Recognition Mechanisms” (PLoS ONE, 2012)
Entries after “also recorded” stand apart in the source; their conditions may differ. Like-named read-outs stand apart in the source and are kept apart here. Blank lines part the entries; values can stand above or below the compound they belong to.

Legend:
KLC1-N301A = target: T1, KLC1-N301A (Homo sapiens, UniProt Q07866, N301A); test: ITC binding of ALC1 peptide to KLC1-N301A mutant; conditions: 25°C
T1 construct: KLC1-TPR (residues 228–495, genbank: NP_005543); made in house; host or cells: E. coli BL21(DE3)-CodonPlus-RIL
T1 sequence (Q07866 228-495 N301A): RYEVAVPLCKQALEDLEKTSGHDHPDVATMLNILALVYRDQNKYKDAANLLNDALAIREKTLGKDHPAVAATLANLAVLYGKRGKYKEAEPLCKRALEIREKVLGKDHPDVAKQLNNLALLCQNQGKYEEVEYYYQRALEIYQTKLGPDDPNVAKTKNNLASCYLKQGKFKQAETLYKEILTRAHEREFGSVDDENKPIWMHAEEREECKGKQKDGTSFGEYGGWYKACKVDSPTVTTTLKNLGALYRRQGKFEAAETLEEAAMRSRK
Description: (§1) Binding affinities of the JIP1 peptide (Ac-EYTCPTEDIYLE-COOH), ALC1peptide (Ac-EMDWDDSALT-COOH) (synthesized by Tufts University Core Facility), and ALC1 protein to the KLC1-TPR, KLC2-TPR and their mutants were measured by isothermal titration calorimetry (ITC) (VP-ITC microcalorimeter, MicroCal Inc.). Measurements were performed at 25°C by injecting 5–10 µl of peptide solution (1–3 mM) into a sample chamber containing 60–130 µM KLC1-TPR or KLC2-TPR in 20 mM Bis-Tris, pH 6.5, 500 mM sodium chloride, and 0.5 mM TCEP. For the protein-protein interaction, the sample chamber contained 15 µM of KLC1-TPR and 160 µM of the ALC1 protein in a buffer containing 30 mM HEPES 7.4, 200 mM NaCl, 0.5 mM TCEP. The syringe injections containing peptides and proteins were dissolved and dialyzed in the same buffer as the KLC proteins prior to the experiments. A total of 25 injections were performed with an interval of 300 seconds and a reference power of 13 µcal/second. The heat of dilution was controlled with binding isotherms from reference injections containing the peptide alone prior to fitting of the data. ITC data were analyzed using Origin software (MicroCal Inc) and were fit using a one-site binding model.
Tryptophans at position 903 and 973 of ALC1 are crucial in binding to KLC1 as their mutation to alanines disrupt the interaction. There are two negatively charged aspartic acids and a polar serine residue adjacent to the tryptophans. Due to the similarities of the ALC1 residues to those of JIP1, the recognition of ALC1 by KLC1-TPR could also involve a “clamping” feature. However, such clamp must be different from the JIP1 binding polar patch as N343 is not required for ALC1 binding. Also, residues lining the ALC1 binding clamp should be conserved between KLC1-TPR and KLC2-TPR as ALC1 can interact with both isoforms. Possible candidates are N301 and N344 residues in the inner helices of TPR3 and TPR4 of KLC1-TPR. N301 extends toward the neighboring helix and interacts with N344, and is adjacent to K340 and Q341. As these residues are conserved in KLC2-TPR, N301 of KLC1-TPR was mutated into an alanine (KLC1-N301A) and tested its binding behavior towards ALC1 peptide. […] Together, N301 of KLC1-TPR plays an important role in binding of ALC1, probably by forming one of the ALC1 binding clamps.

KLC1-TPR [1] = target: T2, KLC1-TPR (Homo sapiens, UniProt Q07866); test: ITC binding of JIP1 or ALC1 peptide to KLC1-TPR; conditions: 25°C; for Kd / ΔH: 20 mM Bis-Tris pH 6.5, 500 mM NaCl, 0.5 mM TCEP; for Kd: Kd determined from Ka of one-site fit, Table 3; for Kd / N (binding stoichiometry) / ΔH: ± SD from fit; for ΔS / N (binding stoichiometry): pH 6.5, 500 mM NaCl; for ΔS / N (binding stoichiometry) / ΔH: one-site model; for ΔH: peptide 1–3 mM injected into 60–130 µM KLC1-TPR
T2 construct: KLC1-TPR (residues 228–495, genbank: NP_005543); made in house; host or cells: E. coli BL21(DE3)-CodonPlus-RIL
T2 sequence (Q07866 228-495): as the sequence (Q07866 228-495 N301A) above, with A74N counted along it
Description: (§2) DNAs encoding the TPR domains of KLC1-TPR (residues 228–495, genbank: NP_005543) and KLC2-TPR (residues 217–480, genbank: NP_073733) were amplified by polymerase chain reaction (PCR) using cDNAs obtained from the Mammalian Gene Collection as templates. The PCR products were cloned into a modified version of the expression plasmid pET28-LIC (genbank: EF442785) using an Infusion cloning kit (ClonTech). The KLC1-N343S and KLC2-S328N mutants were prepared with a QuickChange® kit (Stratagene).
as §1

KLC1-N343S = target: T3, KLC1-N343S (Homo sapiens, UniProt Q07866, N343S); test: ITC binding of JIP1 or ALC1 peptide to KLC1-N343S mutant; conditions: 25°C; for ΔS / N (binding stoichiometry) / Kd / ΔH: one-site model, N.B = no binding was observed; for N (binding stoichiometry) / Kd / ΔH: ± SD from fit; for ΔH: peptide 1–3 mM into chamber, 20 mM Bis-Tris pH 6.5, 500 mM NaCl, 0.5 mM TCEP
T3 construct: KLC1-TPR (residues 228–495, genbank: NP_005543); made in house; host or cells: E. coli BL21(DE3)-CodonPlus-RIL
T3 sequence (Q07866 228-495 N343S): as the sequence (Q07866 228-495 N301A) above, with A74N, N116S counted along it
Description: as §2, §1

KLC2-S328N = target: T4, KLC2-S328N (Homo sapiens, UniProt Q9H0B6, S328N); test: ITC binding of JIP1 peptide to KLC2-S328N mutant; conditions: 25°C
T4 construct: KLC2-TPR (residues 217–480, genbank: NP_073733); made in house; host or cells: E. coli BL21(DE3)-CodonPlus-RIL
T4 sequence (Q9H0B6 217-480 S328N): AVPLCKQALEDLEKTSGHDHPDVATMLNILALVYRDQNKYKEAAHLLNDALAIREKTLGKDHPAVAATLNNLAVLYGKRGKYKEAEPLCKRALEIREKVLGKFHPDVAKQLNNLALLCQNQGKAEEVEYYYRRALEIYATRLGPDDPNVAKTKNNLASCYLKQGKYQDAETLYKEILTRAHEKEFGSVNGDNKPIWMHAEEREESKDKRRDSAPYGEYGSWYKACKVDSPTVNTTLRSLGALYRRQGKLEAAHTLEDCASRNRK
Description: as §2, §1

KLC2-TPR = target: T5, KLC2-TPR (Homo sapiens, UniProt Q9H0B6); test: ITC binding of JIP1 peptide to KLC2-TPR; conditions: 25°C
T5 construct: KLC2-TPR (residues 217–480, genbank: NP_073733); made in house; host or cells: E. coli BL21(DE3)-CodonPlus-RIL
T5 sequence (Q9H0B6 217-480): as the sequence (Q9H0B6 217-480 S328N) above, with N112S counted along it
Description: as §2, §1

KLC1-TPR [2] = target: T2, KLC1-TPR; test: ITC binding of cytosolic domain of ALC1 protein to KLC1-TPR
Description: as §2, §1
In order to elucidate a comprehensive view of ALC1 binding to KLC isoforms, the cytosolic domain of ALC1 was purified for the ITC binding studies. […] This would cause the modest increase in binding affinity to KLC1-TPR, compared to the ALC1 peptide. […]

[3] = pH 6.5, 500 mM NaCl, one-site model
[4] = pH 6.5, 500 mM NaCl, one-site model, ± SD from fit
[5] = peptide 1–3 mM into chamber, 20 mM Bis-Tris pH 6.5, 500 mM NaCl, 0.5 mM TCEP, one-site model, ± SD from fit
[6] = pH 6.5, 500 mM NaCl, N.B = no binding was observed

- affinity compared with wild type KLC1 (in words) (KLC1-N301A; pH 6.5, 500 mM NaCl): lower affinity than the wild type KLC1
- ΔS (KLC1-N301A; [3]): 12.9 eu
- N (binding stoichiometry) (KLC1-N301A; [4]): 1.02
- Kd (KLC1-N301A; pH 6.5, 500 mM NaCl, one-site model, ± SD from fit, Table 3): 179 ± 127 µM
- N (binding stoichiometry) (KLC1-N301A; pH 6.5, 500 mM NaCl, one-site model, ± SD from fit, listed as ALC1): 1.02±0.69
- ΔH (KLC1-N301A; [5]): -1.2 ± 0.99 kcal/mol
- Kd (KLC1-TPR [1]): 50.3 ± 3.1 µM
- ΔS (KLC1-TPR [1]): 11.4 eu
- N (binding stoichiometry) (KLC1-TPR [1]): 1.85
- N (binding stoichiometry) (KLC1-TPR [1]; listed as ALC1): 1.85±0.04
- ΔH (KLC1-TPR [1]): -2.5 ± 0.07 kcal/mol
- ΔS (KLC1-N343S; pH 6.5, 500 mM NaCl): 14.1 eu
- N (binding stoichiometry) (KLC1-N343S; pH 6.5, 500 mM NaCl): 2.13
- Kd (KLC1-N343S; pH 6.5, 500 mM NaCl, Table 3, read-out: Kd): 44.3 ± 7.5 µM
- N (binding stoichiometry) (KLC1-N343S; pH 6.5, 500 mM NaCl, listed as ALC1): 2.13±0.15
- ΔH (KLC1-N343S): -1.7 ± 0.16 kcal/mol
Compound: Ac-EMDWDDSALT-OH [ALC1 peptide, Ac-EMDWDDSALT-COOH]

- ability to bind (in words) (KLC2-S328N; pH 6.5, 500 mM NaCl): gained binding capacity
- ΔS (KLC2-S328N; [3]): −31.8 eu
- N (binding stoichiometry) (KLC2-S328N; [4]): 1.18±0.01
- ΔH (KLC2-S328N; [5]): -15.9 ± 1.6 kcal/mol
- Kd (KLC1-TPR [1]): 9.4 ± 5.85 µM
- ΔS (KLC1-TPR [1]): 17.9 eu
- N (binding stoichiometry) (KLC1-TPR [1]): 1.02±0.1
- interaction with KLC1-TPR (in words) (KLC1-TPR [1]; pH 6.5, Figure S3A): specifically binds to KLC1-TPR
- ΔH (KLC1-TPR [1]): -1.52 ± 0.182 kcal/mol
- Kd (KLC2-TPR; [6]): N.B
- N (binding stoichiometry) (KLC2-TPR; [6]): N.B
- ΔS (KLC2-TPR; [6]): N.B
- ΔH (KLC2-TPR; peptide 1–3 mM into 60–130 µM KLC2-TPR, 20 mM Bis-Tris pH 6.5, 500 mM NaCl, 0.5 mM TCEP, N.B = no binding was observed): N.B
- ability to bind (in words) (KLC1-N343S; pH 6.5, 500 mM NaCl): lost the ability to bind
- ΔS (KLC1-N343S; pH 6.5, 500 mM NaCl): N.B
- N (binding stoichiometry) (KLC1-N343S; pH 6.5, 500 mM NaCl): N.B
- Kd (KLC1-N343S; pH 6.5, 500 mM NaCl, Table 3): N.B
- ΔH (KLC1-N343S): N.B
Compound: CC[C@H](C)[C@H](NC(=O)[C@H](CC(=O)O)NC(=O)[C@H](CCC(=O)O)NC(=O)[C@@H](NC(=O)[C@@H]1CCCN1C(=O)[C@H](CS)NC(=O)[C@@H](NC(=O)[C@H](Cc1ccc(O)cc1)NC(=O)[C@H](CCC(=O)O)NC(C)=O)[C@@H](C)O)[C@@H](C)O)C(=O)N[C@@H](Cc1ccc(O)cc1)C(=O)N[C@@H](CC(C)C)C(=O)N[C@@H](CCC(=O)O)C(=O)O [JIP1 peptide, Ac-EYTCPTEDIYLE-COOH]
- interaction with KLC2-TPR (in words) (KLC2-TPR; pH 6.5, 500 mM NaCl): no interaction was detected; also recorded: not to KLC2-TPR

- Kd (KLC1-TPR [2]; 25°C, 15 µM KLC1-TPR, 160 µM ALC1 protein, 30 mM HEPES 7.4, 200 mM NaCl, 0.5 mM TCEP, one-site model): 2400 nM
- binding stoichiometry (KLC1-TPR [2]; 25°C, 30 mM HEPES 7.4, 200 mM NaCl, 0.5 mM TCEP, one-site model): 0.85
- affinity compared with the ALC1 peptide (in words) (KLC1-TPR [2]; KLC1-TPR): higher affinity than the ALC1 peptide
Compound: cytosolic domain of ALC1: purified cytosolic domain of ALC1, containing two KLC1-binding motifs (residues 893–896 and 964–967)
